How the values were obtained:
Cannabinoid receptor 2 = Cannabinoid receptor 2 (Homo sapiens, UniProt P34972)
Description: Inhibitory concentration tested against human Cannabinoid receptor 2 (hCB2)

in vivo [1] = conditions: rat, iv, 1 mg/kg
Description: Half life period was determined in rat after intravenous administration of 1 mg/kg compound

in vivo [2] = conditions: rat, iv, 1 mg/kg; remark: listed apart in the source
Description: Volume of distribution at steady state was determined in rat after intravenous administration of 1 mg/kg compound

in vivo [3] = conditions: rat, po, 2 mg/kg
in vivo [4] = conditions: rat, iv, 1 mg/kg; remark: listed apart in the source

Sequence of Cannabinoid receptor 2 (P34972 whole entry): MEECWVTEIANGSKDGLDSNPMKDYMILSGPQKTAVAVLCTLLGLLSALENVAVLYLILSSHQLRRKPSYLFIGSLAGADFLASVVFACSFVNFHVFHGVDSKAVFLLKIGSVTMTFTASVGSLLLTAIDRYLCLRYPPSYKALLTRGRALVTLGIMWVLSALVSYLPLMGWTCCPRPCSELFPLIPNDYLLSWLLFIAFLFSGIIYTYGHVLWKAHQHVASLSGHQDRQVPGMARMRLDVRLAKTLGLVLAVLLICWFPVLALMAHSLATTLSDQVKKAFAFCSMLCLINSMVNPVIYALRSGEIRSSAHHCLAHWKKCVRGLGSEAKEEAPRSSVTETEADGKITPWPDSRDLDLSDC

Work on `CCCNC(=O)c1cc(-c2ccc(Cl)cc2)c(-c2ccc(Cl)cc2Cl)nc1OCc1ccc(F)c(F)c1` yielded an IC50 (Cannabinoid receptor 2) of 815 nM, a half-life (in vivo [1]) of 2.5 h and a Vd (in vivo [2]) of 0.4 L/kg. For the same compound, the bioavailability (in vivo [3]) was 12% and the clearance (in vivo [4]) was 5.8 mL/min/kg.

From ChEMBL document CHEMBL1144282, “Synthesis and SAR of 5,6-diarylpyridines as human CB1 inverse agonists” (Bioorg Med Chem Lett, 2005)
